Laboratory results reported in patent EP2884284A1, “Dry diagnostic reagent” (priority 2013, dated 2015).

Assays:
[1] = Moisture uptake, modified Ph. Eur. 5.11 hygroscopicity method; type: physicochemical; conditions: mass increase during 24h storage over saturated ammonium sulfate solution, 25°C, about 100 mg
Method: It determines the mass increase (% (m/mo)) during a 24h storage period over a saturated ammonium sulfate solution.

[2] = Moisture uptake over saturated K2SO4 solution at about 100% relative humidity; conditions: about 25°C, amorphous except for CaCl2
[3] = Disintegration and dissolution time of lyophilisates, adjusted Ph. Eur. 7.4 oral lyophilisates method; type: physicochemical; conditions: lyophilisate about 1 mg from 12.5 % (m/V) solution, 300 µL TRIS buffer pH 7.4, about 22°C, no stirring
Method: Disintegration of substances described in Examples 5 and 6 were determined according to the method described in the European Pharmacopoeia 7.4 in monograph "tablets" section "oral lyophilisates". The disintegration time is acceptable if the oral lyophilisate disintegrates within 3 minutes in 200mL of "purified water R" at temperatures between 15°C and 25°C. Herein, disintegration is the loss of the overall structure, whereas dissolution means that the compound is completely dissolved.
This method was adjusted for the small volume lyophilisates which were used here (∼10 µL initial solution which corresponds to a lyophilysate mass of about 1 mg). Therefore the lyophilized product was added to 300 µL of TRIS buffer (adjusted pH 7.4 at 22°C) without any additional manipulation, e.g. shaking or stirring. In addition to the disintegration time the time until the whole product was completely dissolved, i.e. no visible particles detectable, has been determined at about 22°C (22.1 - 22.3 °C during the experiment).
. It was not possible to lyophilize pure amorphous calcium lactate due to rapid solidification and partially crystallization of the solution, which contained also 12.5%(m/V) amorphous calcium lactate. Table 9: Disintegration time and dissolution time for substances

[4] = Glass transition of the maximally frozen system Tg' by differential scanning calorimetry; conditions: solutions contained 12.5% (m/V) of the respective amorphous solid
Excerpt: Further, the temperature Tg' is the glass transition temperature of the maximally frozen system, i.e. the glass transition of the amorphous phase within an ice matrix (from ultrapure water).

Uptake rate during 3h storage at 99.9 % rel. humidity (sat. K2SO4 sol.) [2] | Disintegration time [3] [s] | Dissolution time (mean ± sdv) [3] [s] | Glass transition of the frozen system (Tg') [4] [°C] | Compound | Ph. Eur. method Hygroscopicity [1]
0.384 ratio compared to CaCl2 | – | – | – | CC(O)C(=O)[O-].CC(O)C(=O)[O-].[Ca+2] (centres unmarked) [CL, calcium lactate] | 30.28 %(m/mo
– | <1 | 14 ± 3 | -20.18 | Calcium lacto ascorbate [CLA] | –
– | <1 | 12 ± 1 | -13.28 | calcium ascorbate lactobionate [CALB] | –
0.204 ratio compared to CaCl2 | <1 | 19 ± 6 | -11.74 | calcium lacto gluconate [CLG ME] | –
– | <1 | 8 ± 1 | -23.02 | calcium lacto pantothenate [CLP] | –
– | <1 | 10 ± 2 | -18.84 | calcium lactobionate pantothenate [CLBP] | –
– | <1 | 6 ± 1 | -25.28 | calcium pantothenate [CP, reference compound] | 22.02 %(m/mo

Compound | Uptake rate during 3h storage at 99.9 % rel. humidity (sat. K2SO4 sol.) [2] | Disintegration time [3] [s] | Dissolution time (mean ± sdv) [3] [s] | Glass transition of the frozen system (Tg') [4] [°C] | Ph. Eur. method Hygroscopicity [1]
calcium ascorbate [reference compound] | – | <1 | 11 ± 1 | -24.61 | 31.77 %(m/mo
calcium ascorbate gluconate [CAG] | – | <1 | 11 ± 2 | -15.70 | 19.65 %(m/mo
calcium gluconate [CG, reference compound] | 0.214 ratio compared to CaCl2 | <1 | 9 ± 1 | -11.08 | 20.16 %(m/mo
